Calls of active or inactive are those of the source. The rule behind the calls is not given here.
System: rodent lifetime carcinogenesis bioassay, tumor incidence TD50
Assay: carcinogenic potency in animals, long-term in vivo studies, CPDB compilation (AID 1745844)
Details: in feed

`Nc1cc(S(=O)(=O)[O-])cc2cc(S(=O)(=O)[O-])c(N=Nc3ccc(-c4ccc(N=Nc5c(S(=O)(=O)[O-])cc6cc(S(=O)(=O)[O-])cc(N)c6c5O)c(O)c4)cc3O)c(O)c12.[Cu].[Cu].[Na+].[Na+].[Na+].[Na+]` was tested, and the TD50 (mouse, strain B6C3F1, females, site: any site (literature study), lesion: several types, types named in the paper, dosed 103 weeks, study length 106 weeks) was 1530 mg/kg/day, the TD50 (mouse, strain B6C3F1, females, site: liver, lesion: hepatoblastoma + hepatocellular carcinoma, dosed 103 weeks, study length 106 weeks) was 4000 mg/kg/day and the TD50 (mouse, strain B6C3F1, females, site: liver, lesion: hepatocellular adenoma + hepatoblastoma + hepatocellular carcinoma, dosed 103 weeks, study length 106 weeks) was 711 mg/kg/day. The TD50 (mouse, strain B6C3F1, females, site: liver, lesion: hepatocellular adenoma + hepatocellular carcinoma, dosed 103 weeks, study length 106 weeks) was 711 mg/kg/day, the TD50 (mouse, strain B6C3F1, females, site: liver, lesion: hepatocellular adenoma, dosed 103 weeks, study length 106 weeks) was 774 mg/kg/day and the TD50 (mouse, strain B6C3F1, females, site: liver, lesion: hepatocellular carcinoma, dosed 103 weeks, study length 106 weeks) was 4570 mg/kg/day. For the same compound, the TD50 (mouse, strain B6C3F1, males, site: any site (literature study), lesion: several types, types named in the paper, dosed 103 weeks, study length 105 weeks) was 1910 mg/kg/day, the TD50 (mouse, strain B6C3F1, males, site: jejunum, lesion: carcinoma, dosed 103 weeks, study length 105 weeks) was 20300 mg/kg/day and the carcinogen call (mouse, strain B6C3F1, males, site: kidney, lesion: tubule adenoma + tubule carcinoma, dosed 103 weeks, study length 105 weeks) was “e”. For the same compound, the TD50 (mouse, strain B6C3F1, males, site: kidney, lesion: tubule adenoma, dosed 103 weeks, study length 105 weeks) was 195000 mg/kg/day, the carcinogen call (mouse, strain B6C3F1, males, site: kidney, lesion: tubule carcinoma, dosed 103 weeks, study length 105 weeks) was “e” and the TD50 (mouse, strain B6C3F1, males, site: liver, lesion: hepatocellular adenoma + hepatoblastoma + hepatocellular carcinoma, dosed 103 weeks, study length 105 weeks) was 1080 mg/kg/day. For the same compound, the TD50 (mouse, strain B6C3F1, males, site: liver, lesion: hepatocellular adenoma + hepatocellular carcinoma, dosed 103 weeks, study length 105 weeks) was 1080 mg/kg/day, the TD50 (mouse, strain B6C3F1, males, site: liver, lesion: hepatocellular adenoma, dosed 103 weeks, study length 105 weeks) was 1210 mg/kg/day and the TD50 (mouse, strain B6C3F1, males, site: liver, lesion: hepatocellular carcinoma, dosed 103 weeks, study length 105 weeks) was 2990 mg/kg/day. The TD50 (rat, strain Fischer 344, females, site: any site (literature study), lesion: several types, types named in the paper, dosed 103 weeks, study length 104 weeks) was 653 mg/kg/day, the TD50 (rat, strain Fischer 344, females, site: uterus, lesion: endometrial stromal polyp, dosed 103 weeks, study length 104 weeks) was 83.5 mg/kg/day (inactive) and the TD50 (rat, strain Fischer 344, males, site: any site (literature study), lesion: several types, types named in the paper, dosed 103 weeks, study length 104 weeks) was 921 mg/kg/day. The TD50 (rat, strain Fischer 344, males, site: forestomach, lesion: squamous-cell carcinoma + squamous-cell papilloma, dosed 103 weeks, study length 104 weeks) was 2350 mg/kg/day, the carcinogen call (rat, strain Fischer 344, males, site: forestomach, lesion: squamous-cell carcinoma, dosed 103 weeks, study length 104 weeks) was “e” and the TD50 (rat, strain Fischer 344, males, site: forestomach, lesion: squamous-cell papilloma, dosed 103 weeks, study length 104 weeks) was 3140 mg/kg/day. For the same compound, the TD50 (rat, strain Fischer 344, males, site: liver, lesion: hepatocellular adenoma + hepatoblastoma + hepatocellular carcinoma, dosed 103 weeks, study length 104 weeks) was 5050 mg/kg/day, the TD50 (rat, strain Fischer 344, males, site: palate, lesion: basosquamous tumor, benign + squamous-cell carcinoma + squamous-cell papilloma, dosed 103 weeks, study length 104 weeks) was 1380 mg/kg/day and the TD50 (rat, strain Fischer 344, males, site: palate, lesion: basosquamous tumor, benign, dosed 103 weeks, study length 104 weeks) was 11500 mg/kg/day. For the same compound, the TD50 (rat, strain Fischer 344, males, site: palate, lesion: squamous-cell carcinoma + squamous-cell papilloma, dosed 103 weeks, study length 104 weeks) was 1570 mg/kg/day, the TD50 (rat, strain Fischer 344, males, site: palate, lesion: squamous-cell carcinoma, dosed 103 weeks, study length 104 weeks) was 9510 mg/kg/day and the TD50 (rat, strain Fischer 344, males, site: palate, lesion: squamous-cell papilloma, dosed 103 weeks, study length 104 weeks) was 1920 mg/kg/day.
In the case of `CO[C@@H]1[C@@H](O[C@@H]2O[C@H](C)[C@@H](O[C@H]3C[C@@](C)(O)[C@@H](OC(=O)CC(C)C)[C@H](C)O3)[C@H](N(C)C)[C@H]2O)[C@@H](CC=O)C[C@@H](C)[C@@H](O)/C=C/C=C/C[C@@H](C)OC(=O)C[C@H]1OC(C)=O`, the carcinogen call (rat, strain F344/DuCrj, females, site: liver, lesion: hepatocellular adenoma, dosed 104 weeks, study length 106 weeks) is reported as “negative (inactive)”, the carcinogen call (rat, strain F344/DuCrj, females, site: liver, lesion: one or several types, types not named, dosed 52 weeks, study length 52 weeks) is reported as “negative (inactive)” and the carcinogen call (rat, strain F344/DuCrj, males, site: liver, lesion: hepatocellular adenoma, dosed 104 weeks, study length 106 weeks) is reported as “negative (inactive)”. The TD50 (rat, strain F344/DuCrj, males, site: liver, lesion: hepatocellular carcinoma, dosed 104 weeks, study length 106 weeks) was 51300 mg/kg/day (inactive) and the carcinogen call (rat, strain F344/DuCrj, males, site: liver, lesion: one or several types, types not named, dosed 52 weeks, study length 52 weeks) was “negative (inactive)”.
For `NNc1nc(-c2ccccc2)cs1`, the TD50 (rat, strain Sprague-Dawley, females, site: any site (literature study), lesion: several types, types named in the paper, dosed 46 weeks, study length 66 weeks) was 311 mg/kg/day (inactive).
